From patent US8039468B2, “Method of inhibition of respiratory depression using positive allosteric AMPA receptor modulators” (The Governors of the University of Alberta, priority 2006, dated 2011)
Entries after “also recorded” stand apart in the source; their conditions may differ. Marks after values point to notes of the source that are not given here.

Columns and labels:
[1] = tested on: brainstem-spinal cord preparations; assay: Brainstem-spinal cord preparation, rhythmic respiratory discharge (C4 ventral root); set-up: species or system rat
Source text: The fetal and neonatal brainstem-spinal cord preparations have been well-characterized and shown to generate complex, coordinated patterns of respiratory-related activity. See, Smith J. C. et al. (1990) and Greer, J. J. et al. (1992). Recordings from cervical ventral and hypoglossal cranial roots provide information regarding the pharmacology of respiratory rhythm generating networks and the pathways transmitting that respiratory drive to key output components of the respiratory motor system, without the confounding influence of peripheral chemoreceptors and supramedullary structures.
Brainstem-spinal cord preparations were carried out as follows: Sprague-Dawley (SD) rat fetuses were delivered from timed-pregnant dams anesthetized with halothane (2% delivered in 95% O2 and 5% CO2) and maintained at 37° C. by radiant heat, following procedures approved by the Animal Welfare Committee at the University of Alberta. The timing of pregnancies was determined by vaginal lavage of the dam. Newborn rat pups were anesthetized with metofane. Newborn pups and embryos were then decerebrated and the brainstem-spinal cord was dissected following procedures similar to those established for perinatal rats. See, Smith, J. C., et al. (1990) J. Neurophysiol. 64:1149-1169; Greer, J. J., et al. (1992) J. Neurophysiol. 67:996-999. The neuraxis was continuously perfused at 27±1° C. (perfusion rate 5 ml/minute, chamber volume of 1.5 ml) with modified Kreb's solution that contained (mM): 128 NaCl, 3.0 KCl, 1.5 CaCl2, 1.0 MgSO4, 24 NaHCO3, 0.5 NaH2PO4, and 30 D-glucose equilibrated with 95% O2-5% CO2 (pH=7.4).

[2] = tested on: medullary slice preparations (preBötC, XII motoneuron nucleus); assay: Medullary slice preparation, respiratory rhythm (XII nerve root discharge); set-up: species or system rat; settings: for DAMGO-induced suppression of inspiratory discharge amplitude, focal injection into XII motorneuron nucleus / DAMGO-induced suppression of respiratory rhythm, focal injection into preBötC: newborn (P2) slice, CX614 200 μM, Compound A 1 mM, DAMGO in bath
Procedure: The medullary slice preparation is a derivative of the brainstem-spinal cord preparation. See, Smith J. C., et al. (1991). It contains the minimum component of neuronal populations within the ventrolateral medulla necessary for generating a respiratory rhythm, the preBötC. The medullary slice also contains a significant portion of the rostral ventral respiratory group, hypoglossal nucleus and XII cranial nerve rootlets from which inspiratory motor discharge is recorded.
Brainstem-spinal cords isolated from newborn rats were pinned down, ventral surface upward, on a paraffin-coated block. See, Funk, G. D., et al. (1993); Smith, J. C., et al. (1991). The block was mounted in the vise of a vibratome bath (Leica, VT1000S). […] A single transverse slice containing the preBötC and more caudal reticular formation regions was then cut (500-600 μm thick), transferred to a recording chamber and pinned down onto a Sylgard elastomer. The medullary slice was continuously perfused with a bathing solution identical to that used for the brainstem-spinal cord preparation with the exception that in some cases the K^+ concentration was increased to 9 mM which facilitates long-term generation of stable rhythm (>5 hours) by these preparations. See, Funk, G. D., et al. (1993); Smith, J. C., et al. (1991). Recordings were made from the hypoglossal (XII) cranial nerve roots, cervical (C4) ventral roots and neuronal population discharge within the ventrolateral medulla with suction electrodes placed over the nerve roots or on the surface of the rhythmic slice preparations.

[3] = tested on: perfused heart in situ preparations; assay: Perfused heart in situ preparation, phrenic nerve discharge; set-up: species or system rat; settings: fentanyl 4 nM, then CX546 50 μM in perfusate
[4] = tested on: inspiratory neuron within the preBötzinger complex; assay: Whole-cell recording from inspiratory neuron within the preBötzinger complex, medullary slice; assay type: cell-based, rat
rats = assay: Thermal nociception, hind paw withdrawal test; assay type: in vivo, rat
XII motorneuron = assay type: cell-based, rat; settings: compound in bathing medium, TTX present
[5] = listed as 4-(BENZOFURAZAN-5-YLCARBONYL)MORPHOLINE

C[C@@H](NC(=O)[C@@H](N)Cc1ccc(O)cc1)C(=O)NCC(=O)N(C)[C@@H](Cc1ccccc1)C(=O)NCCO [DAMGO, Tyr-D-Ala-Gly-N-methyl-Phe-Gly-ol-enkephalin, reference compound]
respiratory frequency and amplitude ([1]; P1 preparation, DAMGO 800 nM bath-applied): markedly suppressed | respiratory frequency and amplitude ([2]; P1 slice in 9 mM [K+]o, DAMGO 800 nM bath-applied): markedly suppressed

O=C(c1ccc2c(c1)OCCO2)N1CCCCC1 [CX546, 1-(1,4-benzodioxan-6-ylcarbonyl)piperidine]
frequency of rhythmic respiratory discharge ([1]; E20 preparation, CX546 50-100 μM in bathing medium): markedly enhanced | DAMGO-induced depression of respiratory frequency and amplitude ([1]; P1-P2, DAMGO 800 nM, then CX546 200 μM bath-applied): alleviated; also recorded: partially reversed | baseline respiratory frequency ([1]; P3 preparations, bath-applied CX546): no effect on the baseline frequency | respiratory frequency compared to control ([1]; perinatal preparations E18-P0, bath-applied CX546): significant increase in frequency | time to restoration of frequency and amplitude to 3 mM [K+] bath levels ([2]; CX546 400 μM bath-applied after rhythm ceased in 3 mM [K+]): ≤ 2 min | effect on rhythmic respiratory activity after cessation ([2]; CX546 400 μM bath-applied after rhythm ceased in 3 mM [K+], P2 slice): rapid and potent stimulation of respiratory networks; also recorded: restored rhythmic activity of XII motoneurons | control values of respiratory frequency or amplitude of motor nerve discharge ([2]; CX546 on its own, 9 mM [K+]o): did not significantly alter | DAMGO-induced depression of respiratory frequency and amplitude ([2]; P1-P2 slice, 9 mM [K+]o, DAMGO 800 nM, then CX546 200 μM bath-applied): alleviated; also recorded: partially reversed | persistence of respiratory rhythm in presence of compound ([2]; P2 slice, 3 mM [K+]o, CX546 in bath): > 3 h | fentanyl-induced depression of respiratory frequency and phrenic burst amplitude [3]: counters | frequency of the rhythm and inspiratory drive potential ([4]; current clamp, low extracellular K+): increased | amplitude of inward inspiratory drive current ([4]; voltage clamp, same neuron): marked increase | Latency (s), hind paw withdrawal (rats; Adult (2-3 months), drug alone i.p. (CX546 16 mg/kg pre-administration of fentanyl; fentanyl 130 μg/kg)): 5.3 ± 2.1 s | Latency (s), hind paw withdrawal (rats; Adult (2-3 months), post-administration of fentanyl 130 μg/kg, CX546 16 mg/kg or naloxone 1 mg/kg i.p.): >20* s | sensitivity of thermal nociception tests in the control condition (rats; CX546 16 mg/kg on its own): did not change the sensitivity | Latency (s), hind paw withdrawal (rats; Newborn (P1-P2), drug alone i.p. (CX546 16 mg/kg pre-administration of fentanyl; fentanyl 60 μg/kg)): 4.3 ± 3.2 s | Latency (s), hind paw withdrawal (rats; Newborn (P1-P2), post-administration of fentanyl 60 μg/kg, CX546 16 mg/kg or naloxone 1 mg/kg i.p.): >20* s | fentanyl-induced analgesia after subsequent administration of the drug (rats; newborn and adult rats, CX546 16 mg/kg or naloxone 1 mg/kg i.p.): persisted | baseline frequency and amplitude of breathing (Sprague-Dawley rat; CX546 16 mg/kg i.p. on its own, newborn P0-P2 and adult rats): not significantly altered | behaviour or arousal state (spontaneous movement, agitation, sedation) (Sprague-Dawley rat; rat, in vivo, ip, 16 mg/kg): without any obvious effect

O=C(c1ccc2nonc2c1)N1CCOCC1 [Compound A, 4-(benzofurazan-5-ylcarbonyl)morpholine]
DAMGO-induced suppression of inspiratory discharge amplitude, focal injection into XII motorneuron nucleus [2]: alleviates some of the amplitude depression | DAMGO-induced suppression of respiratory rhythm, focal injection into preBötC [2]: alleviates the frequency depression | DAMGO-induced suppression of inspiratory discharge amplitude, focal injection into XII motorneuron nucleus [2, 5]: alleviates DAMGO induced suppression of respiratory rhythm | DAMGO-induced suppression of respiratory rhythm, focal injection into preBötC [2, 5]: alleviates DAMGO induced suppression of respiratory rhythm | amplitude and duration of glutamate-induced inward currents (XII motorneuron): not significantly altered | current amplitude in response to glutamate injections ([4]; voltage clamp, TTX present, bath-applied compound): increases | persistence of enhancement of respiratory rhythm (Sprague-Dawley rat; rat, in vivo): at least 1 hour
